{"source": "patent US8722052B2", "about": "“Vaccinia virus protein A46 peptide and use thereof” (priority 2008, dated 2014)", "note": "“And” between values parts separate entries of the source, which are not always exact repeats. Equal entries are not always repeated. Square brackets hold non-standard residues; d marks the D form. Ends that are not written are not given here."}
{"system": "TLR4", "sequence (O00206 24-839)": "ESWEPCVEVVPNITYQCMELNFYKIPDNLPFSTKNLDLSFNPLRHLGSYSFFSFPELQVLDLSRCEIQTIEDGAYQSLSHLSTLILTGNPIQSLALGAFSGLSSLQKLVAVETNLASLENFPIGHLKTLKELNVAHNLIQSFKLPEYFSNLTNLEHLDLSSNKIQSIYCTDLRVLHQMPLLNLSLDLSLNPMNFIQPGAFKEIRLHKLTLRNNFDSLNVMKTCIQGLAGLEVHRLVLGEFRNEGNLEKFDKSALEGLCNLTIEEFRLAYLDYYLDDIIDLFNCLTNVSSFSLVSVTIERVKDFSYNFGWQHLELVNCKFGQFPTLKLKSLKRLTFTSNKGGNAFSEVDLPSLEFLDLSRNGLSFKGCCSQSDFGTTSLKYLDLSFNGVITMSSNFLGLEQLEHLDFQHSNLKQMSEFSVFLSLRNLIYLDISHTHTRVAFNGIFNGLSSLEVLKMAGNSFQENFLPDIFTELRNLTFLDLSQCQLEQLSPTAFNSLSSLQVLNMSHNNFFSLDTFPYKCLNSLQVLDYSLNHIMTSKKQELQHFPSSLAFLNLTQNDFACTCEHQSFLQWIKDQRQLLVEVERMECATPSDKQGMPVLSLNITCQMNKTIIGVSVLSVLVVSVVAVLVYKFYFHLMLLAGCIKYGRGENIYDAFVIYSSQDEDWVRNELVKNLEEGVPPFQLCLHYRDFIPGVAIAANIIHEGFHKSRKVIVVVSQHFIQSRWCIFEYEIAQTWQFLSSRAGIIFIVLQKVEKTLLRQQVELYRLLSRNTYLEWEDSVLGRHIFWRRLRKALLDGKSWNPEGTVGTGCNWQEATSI", "sequence (Q9Y6Y9 17-160 partner limits assumed)": "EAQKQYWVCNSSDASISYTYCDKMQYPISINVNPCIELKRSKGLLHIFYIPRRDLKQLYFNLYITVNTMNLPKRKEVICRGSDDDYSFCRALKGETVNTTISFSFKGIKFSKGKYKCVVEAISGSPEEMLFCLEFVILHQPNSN", "test": "LPS-induced TNFα in primary human PBMC, ELISA", "format": "cell-based", "conditions": "peptide 1, 5 or 25 μM 1 h before 10 ng/ml LPS, 6 h", "description": "FIGS. 13A and B are bar charts showing the effect of A467 and A464 on LPS-induced TNFα production and on cell viability in primary human cells. Peripheral blood mononuclear cells (PBMCs) were seeded in 96 well plates (1 ×10^6 cells/ml) 24 hours before treatment. A467 (SEQ ID NO. 23) and A464 (SEQ ID NO. 20) were added to the cells at 1, 5 and 25 μM 1 hour before stimulating with 10 ng/ml LPS. The peptides were added into the unstimulated control wells at 25 μM. Supernatants were collected 6 hours after stimulation and assayed for TNFα production by ELISA (A). The cells were assayed for viability by the MTT assay (B). No peptides were added to the control wells (black bars). Data is representative of at least three experiments each performed in triplicate and is expressed as mean±s.d;\nFIGS. 14A and B are bar charts showing the comparison of the inhibitory effect of the L- and D-forms of A464 on LPS-induced TNFα in primary human and murine cells. PBMC (1×10^6 cells/ml, (A)) or immortalised murine macrophages (1.5×10^5 cells/ml, (B)) were seeded in 96 well plates 24 hours before treatment. L-form and D-form A464 peptides (with the 9R delivery peptide on the C-terminus, SEQ ID NO. 20) were added to the cells at a concentration of 1, 5 or 25 μM 1 hour before stimulating with 10 ng/ml LPS. Supernatants were collected 6 hours after stimulation and assayed for either human (A) or murine (B) TNFα production by ELISA. No peptides were added to the control wells (black bars). Data is representative of at least three experiments each performed in triplicate and is expressed as mean±s.d;\nFIGS. 15A and B are bar charts showing the effect of the D-form A464 peptide with the TAT delivery sequence on LPS induced TNFα in primary human and murine cells. PBMC (A) and immortalised murine macrophages (B) were seeded in 96 well plates 24 hours before treatment. D-form of A467 (SEQ ID NO. 37) and A464 (SEQ ID NO. 36) with the TAT delivery sequence were added to the cells at a concentration of 1, 5 or 25 μM 1 hour before stimulating with 10 ng/ml LPS. The peptides were added into the unstimulated control wells at 25 μM. Supernatants were collected 6 hours after stimulation and assayed for either human (A) or murine (B) TNFα production by ELISA. No peptides were added to the control wells (black bars). Data is representative of at least three experiments each performed in triplicate and is expressed as mean±s.d;\nFIGS. 16A and B are bar charts showing the effect of attaching 9R to the N-terminus of A464 on LPS-induced TNFα in primary human and murine cells. Immortalised murine macrophages (A) and PBMC (B) were seeded in 96 well plates 24 hours before treatment. L-form of A467 (SEQ ID NO. 39) and A464 (SEQ ID NO. 38) with the 9R-delivery sequence at the N-terminus were added to the cells at a concentration of 1, 5 or 25 μM 1 hour before stimulating with 10 ng/ml LPS. The peptides were added into the unstimulated control wells at […]. Supernatants were collected 6 hours after stimulation and assayed for either murine (A) or human (B) TNFα production by ELISA. No peptides were added to the control wells (black bars). Data is representative of at least three experiments each performed in triplicate and is expressed as mean±s.d;\nFIGS. 17A and B are bar charts showing the effect of the D-form A464 with 9R at the N-terminus on LPS-induced TNFα in primary human and murine cells. Immortalised murine macrophages (A) and PBMC (B) were seeded in 96 well plates 24 hours before treatment. D-form of A467 (SEQ ID NO. 39) and A464 (SEQ ID NO. 38) peptides with the 9R-delivery sequence at N-terminus were added to the cells at a concentration of 1, 5 or 25 μM 1 hour before stimulating with 10 ng/ml LPS. The peptides were added into the unstimulated control wells at 25 μM. Supernatants were collected 6 hours after stimulation and assayed for either murine (A) or human (B) TNFα production by ELISA. No peptides were added to the control wells (black bars). […]"}
{"substance": "KYSFKLILAEYRRRRRRRRR [Peptide A464]", "inhibition of LPS-induced hTNFα production": "significant inhibition of TLR4 by A464 (SEQ ID No. 20) at 1 μM and 5 μM A464 (SEQ ID No. 20) peptide almost completely blocked hTNFα production"}
{"substance": "9RN-A464 (RRRRRRRRRKYSFKLILAEY) [Peptide 9RN-A464]", "inhibition of LPS-induced hTNFα production": "inhibition was only observed from 5-25 μM"}
{"substance": "D-9RN-A464 ([dR][dR][dR][dR][dR][dR][dR][dR][dR][dK][dY][dS][dF][dK][dL][dI][dL][dA][dE][dY]) [Peptide D-9RN-A464]", "inhibition of LPS-induced hTNFα production": "inhibited TNFα only at concentration of 24 μM"}
